“Also recorded” adds a separate entry of the source.
How the values were obtained:
[1] = Observed chemical stability of the isolated compound; format: physicochemical; details: neutral (acid) form
Protocol: Compound 5d was obtained according to the general procedure described. It consists of reacting one molar equivalent of compound 2 with the corresponding carboxylate (L-phenylalanine sodium salt) under refluxing ethanol for 24 h. Under these conditions, the reaction proceeds by nucleophilic attack of the amino group on the carbonimidothioate group of compound 2, with the elimination of gaseous thiomethanol to obtain the sodium salt of SMe-isothiourea 5d, with a yield of 40%. […] Therefore, it was used only as an intermediate for the synthesis of its corresponding methyl ester (8d). The corresponding SMe-isothiureacarbozxylate methyl ester 8d was obtained in 56% yield using one molar equivalent of the SMe-isothiurea sodium salt, with 1.2 equivalents of iodomethane in DMF at room temperature for 24 h, following the general procedure described in the literature. […]
In a flask, L-phenylalanine (202 mg, 1.23 mmol) and NaOH (48.8 mg, 1.2 mmol) were placed in 10 mL of EtOH. […] It was kept at the same temperature for 24 h, and the reaction was monitored with TLC (Hex-AcOEt 7:3). […] Compound 5d was obtained as an acid in the form of a pale white crystal with a yield of 40.0% (182.5 mg, 0.5 mmol) and an mp = 92−94 °C; TLC Rf = 0.44 (Hex-AcOEt 7:3); HPLC tr = 10.7 min; ATR-FTIR νmax (cm^−1): 3155.8, 3067.3, 2925, 2855.6; HRMS (ESI+) 372.0840 m/z calculated for C18H18N3O2S2; found 372.0928 [M + H]^+.

[2] = tested on: STZ-HFD-induced T2D Wistar rats; assay: Subchronic evaluation in STZ-HFD-induced T2D model; format: in vivo, rat; design: HbA1c: unit not given here
Protocol: In vivo experiments were conducted in an acute and a subchronic model, where Wistar rats (180–220 g) were used. The study covered a total period of 10 weeks and was carried out under the Mexican Standard, and the “Guide for the Care and Use of Laboratory Animals” of the National Research Council and Health Institutes was followed.
At first, animals were housed in polypropylene cages under conditions of controlled temperature (20–25 °C), relative humidity (36–60%), and light/dark cycles, with water ad libitum. Before starting the experiment, they were given a one-week acclimatization period to adapt to their new habitat. Once finalized, animals were fed an HFD for 3 weeks to generate insulin resistance.
After this period, the animals fasted for 12 h and then were administered intraperitoneally with a single dose of 35 mg/Kg of STZ dissolved in a buffer of 0.1 M citrate, pH 4.5 (prepared on the same day of administration). Once administered, the hypercaloric diet was maintained, and 10% sucrose solution was placed on demand for 2 days.
One week after administration, postprandial blood glucose levels were measured by venipuncture using a glucometer. Those animals that maintained a glucose level between 200 and 400 mg/dL were included in the study.
(§1) Treatments were administered daily as described above, adjusting the dose according to the weight of the individuals. Fasting glucose levels (6 h fast) were monitored every 7 days until the end of treatments at week 10 (Figure 14). Halfway through the last week of treatment, the OGTT was performed, administering a dose of 1.5 g/Kg of glucose orally and subsequently monitoring capillary blood glucose at 0, 15, 30, 60, 90, and 120 min [62]. In addition, a 24-element blood chemistry was measured in a Celercare V automated dry chemistry analyzer (Tianjin MNCHIP Technologies Co., Ltd., Tianjin, China) at the beginning and end of the model. For this purpose, the blood samples were obtained from the tail of the rat.
(§2) At the end of the study, animals fasted for 12 h and were taken to a humane endpoint, where blood samples were obtained. These were kept at room temperature for 30 min and then centrifuged at 4000 RPM for 15 min at 4 °C. Finally, the serum was used to perform 24-element blood chemistry and quantify Trolox-equivalent TAC [86], TNF-α [87], and IL-6 levels using commercial kits from Merck (Darmstadt, Germany), Sigma-Aldrich (St. Louis, MO, USA), Cat. No. MAK334-1KT, RAB0479-1KT, and RAB0311-1KT, respectively. In addition, insulin was quantified using the Rat Ins1/Insulin ELISA Kit, from Sigma-Aldrich, No. Cat. RAB0904-1KT [89] to determine the HOMA-IR index. All kits were performed according to the manufacturer’s instructions without modifications.

[3] = tested on: STZ-HFD-induced T2D Wistar rats; assay: Ex vivo serum total antioxidant capacity (Trolox equivalent); format: in vivo, rat
Protocol: as §2

IL-6 = assay: Ex vivo serum IL-6 quantification; format: in vivo, rat
Protocol: as §2

TNF-α = assay: Ex vivo serum TNF-α quantification; format: in vivo, rat
Protocol: as §2

[4] = tested on: STZ-HFD-induced T2D Wistar rats; assay: 24-element blood chemistry in STZ-HFD-induced T2D model; format: in vivo, rat; design: GGT / TBA / AMY / TG / T-CHOL / GLU: unit not given here; details: for ALP / ALT / AST / CK: in U/L (unit assumed); for ALB / GLO / TP: in g/dL (unit assumed); for BUN / CRE / Ca / Mg / P / TBIL / UREA: in mg/dL (unit assumed); for tCO2: in mmol/L (unit assumed); for TP: mean ± SEM, n = 4
Protocol: as §1, §2

[5] = after the induction of T2D, before treatment
[6] = Table S11, After 5 weeks of treatment
[7] = serum, end of treatment, mean ± SEM, n = 4

SMILES: CS/C(=N/c1nc2ccccc2s1)N[C@@H](Cc1ccccc1)C(=O)O [5d, (E)-((benzo[d]thiazol-2-ylimino)(methylthio)methyl)-L-phenylalanine]
- chemical stability [1]: decomposes easily under ambient conditions; also recorded: decomposes, even at low temperatures

SMILES: CCc1ccc(CCOc2ccc(CC3SC(=O)NC3=O)cc2)nc1 (centres unmarked) [PGZ, pioglitazone, reference compound]
- HOMA-IR ([2]; After 5 weeks of treatment): 2.32 ± 0.407
- R-QUICKI ([2]; After 5 weeks of treatment): 0.339 ± 0.008
- HbA1c ([2]; After 5 weeks of treatment, mean ± SEM, n = 4): 9.633 ± 1.601
- HOMA-IR ([2]; Final (end of 5 weeks treatment), PGZ 30 mg/Kg, 8d 32 mg/Kg, mean ± SEM, n = 4): 2.32 ± 0.41
- HOMA-IR ([2]; Initial (beginning of treatment), PGZ 30 mg/Kg, 8d 32 mg/Kg, mean ± SEM, n = 4): 2.59 ± 0.34
- HOMA-IR [2, 5]: 2.59 ± 0.337
- R-QUICKI [2, 5]: 0.333 ± 0.007
- HbA1c ([2]; after the induction of T2D, before treatment, mean ± SEM, n = 4): 8.433 ± 0.088
- adipogenic effect at necropsy ([2]; after treatment): clear adipogenic effect
- polydipsia (water consumption) ([2]; daily oral treatment): decreasing the polydipsia after the first week of treatment
- redistribution of adipose tissue from visceral to subcutaneous fat ([2]; necropsy): marked
- effect on total antioxidant capacity (TAC) [3]: partial recovery of TAC
- TAC Equivalent to Trolox [3, 6]: 97.75 ± 1.29 µM
- TAC Equivalent to Trolox [3, 7]: 97.75 ± 1.29 µM
- effect on IL-6 and TNF-α levels (IL-6; IL-6 and TNF-α together): significantly reduced IL-6 and TNF-α levels
- IL-6 (IL-6; [6]): 234.25 ± 52.05 pg/mL
- IL-6 (IL-6; [7]): 234.25 ± 52.05 pg/mL
- TNF-α (TNF-α; [6]): 3000.53 ± 519.24 pg/mL
- TNF-α (TNF-α; [7]): 3000.53 ± 519.24 pg/mL
- A/G ([4]; Final): 1.43 ± 0.05
- AMY ([4]; Final): 405.75 ± 25.93
- AST/ALT ([4]; Final): 4.61 ± 0.51
- BUN/CRE ([4]; Final): 28.00 ± 3.24
- GGT ([4]; Final): 1.25 ± 0.19
- GLU ([4]; Final): 275.25 ± 84.75
- T-CHOL ([4]; Final): 98.00 ± 5.57
- TBA ([4]; Final): 72.60 ± 16.24
- TG ([4]; Final): 151.00 ± 10.42
- ALP ([4]; Final): 274.00 ± 58.19
- ALT ([4]; Final): 75.75 ± 6.73
- AST ([4]; Final): 343.50 ± 39.59
- CK ([4]; Final): > 3000
- ALB ([4]; Final): 3.78 ± 0.12
- GLO ([4]; Final): 2.65 ± 0.12
- BUN ([4]; Final): 14.81 ± 1.23
- CRE ([4]; Final): 0.54 ± 0.04
- Ca ([4]; Final): 9.18 ± 0.08
- Mg ([4]; Final): 2.40 ± 0.05
- P ([4]; Final): 8.30 ± 0.47
- TBIL ([4]; Final): 0.16 ± 0.02
- UREA ([4]; Final): 31.58 ± 2.78
- tCO2 ([4]; Final): 18.00 ± 0.41
- TP ([4]; Final): 6.43 ± 0.22
- A/G ([4]; Initial): 1.45 ± 0.03
- AMY ([4]; Initial): 369.75 ± 26.22
- AST/ALT ([4]; Initial): 1.99 ± 0.38
- BUN/CRE ([4]; Initial): 25.75 ± 2.59
- GGT ([4]; Initial): 0.80 ± 0.25
- GLU ([4]; Initial): 203.25 ± 19.84
- T-CHOL ([4]; Initial): 81.00 ± 1.96
- TBA ([4]; Initial): 76.43 ± 13.25
- TG ([4]; Initial): 108.13 ± 6.46
- ALP ([4]; Initial): 271.25 ± 44.69
- ALT ([4]; Initial): 63.5 ± 6.5
- AST ([4]; Initial): 119.25 ± 7.96
- CK ([4]; Initial): 509 ± 118.04
- ALB ([4]; Initial): 3.85 ± 0.06
- GLO ([4]; Initial): 2.65 ± 0.10
- BUN ([4]; Initial): 14.22 ± 1.51
- CRE ([4]; Initial): 0.56 ± 0.03
- Ca ([4]; Initial): 9.30 ± 0.20
- Mg ([4]; Initial): 2.09 ± 0.03
- P ([4]; Initial): 7.55 ± 0.87
- TBIL ([4]; Initial): 0.2 ± 0.02
- UREA ([4]; Initial): 30.40 ± 3.28
- tCO2 ([4]; Initial): 13.75 ± 0.85
- TP ([4]; Initial): 6.5 ± 0.15
